These are literature values, as cited in patent publication US20060073200A1, “Lercanidipine capsules” (Recordati Ireland Limited, priority 2004, published 2006).

Like-named read-outs stand apart in the source and are kept apart here.

Series [1] concerns the target cytochrome P450 IIIA4 isoenzyme (Homo sapiens, UniProt P08684). To be noted: extensive presystemic first pass elimination.
Experiment in series [2]: not given
The source holds these as a separate data set.

cytochrome P450 IIIA4 isoenzyme, sequence (P08684 whole entry): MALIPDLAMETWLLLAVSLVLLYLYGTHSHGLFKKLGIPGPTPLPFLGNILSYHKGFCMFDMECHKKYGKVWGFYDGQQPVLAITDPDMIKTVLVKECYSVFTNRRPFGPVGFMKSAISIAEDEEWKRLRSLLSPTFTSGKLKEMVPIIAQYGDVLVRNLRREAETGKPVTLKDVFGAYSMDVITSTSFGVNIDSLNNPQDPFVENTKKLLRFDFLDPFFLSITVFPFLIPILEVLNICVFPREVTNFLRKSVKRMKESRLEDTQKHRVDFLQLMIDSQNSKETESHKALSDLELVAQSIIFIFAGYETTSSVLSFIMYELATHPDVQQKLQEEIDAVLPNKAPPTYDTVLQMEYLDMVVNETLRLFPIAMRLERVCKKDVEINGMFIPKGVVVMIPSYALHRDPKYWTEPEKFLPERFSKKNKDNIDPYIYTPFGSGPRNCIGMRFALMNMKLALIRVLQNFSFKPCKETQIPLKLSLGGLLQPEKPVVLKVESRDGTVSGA

`COC(=O)C1=C(C)NC(C)=C(C(=O)OC(C)(C)CN(C)CCC(c2ccccc2)c2ccccc2)C1c1cccc([N+](=O)[O-])c1` (centres unmarked) [Lercanidipine, methyl 1,1,N-trimethyl-N-(3,3-diphenylpropyl)-2-aminoethyl 1,4-dihydro-2,6-dimethyl-4-(3-nitrophenyl)pyridine-3,5-dicarboxylate]: the solubility result (acidic media, at pH 5) is “less than 20 μg/ml” and the solubility entry (pH greater than 5) is “less than 5 μg/ml”. For the same molecule, under “water, lercanidipine and its salts”, the aqueous solubility result is reported as “about 5 μg/ml”. In addition, the Paap in the series on Caco-2 cell apparatus was 0.05 ×10⁻⁶ cm/s. Besides, in series [1], the “substrate for cytochrome P450 IIIA4 isoenzyme” value is “substrate”. For the same molecule, in series [2] (food (especially high fat content) compared to administration without food), the “increase in amount of lercanidipine absorbed with simultaneous intake of food” value was “three to four fold”. Also, the “plasma level of lercanidipine” value in series [2] (immediate release dosage forms, by 24 h) is reported as “below 1 ng/ml”. Also, the “peak plasma level (Tmax)” value in series [2] (oral administration of an immediate release form) was 1 to 3 h.
